Laboratory results: ChEMBL document CHEMBL2029265, “2-(Pyrrolidin-1-yl)ethyl-3,4-dihydroisoquinolin-1(2H)-one derivatives as potent and selective histamine-3 receptor antagonists” (J Med Chem, 2012)

Columns and labels:
Histamine H3 receptor [1] = biological target: Histamine H3 receptor (Homo sapiens, UniProt Q9Y5N1); experiment: Displacement of [3H]-(R)-alpha-methylhistamine from human H3 receptor expressed in HEK293T cells after 120 mins by scintillation counting; type: cell-based, HEK-293T
Histamine H2 receptor = Histamine H2 receptor (Homo sapiens, UniProt P25021); experiment: Binding affinity to H2 receptor
[2] = biological target: T1, Alpha-2A adrenergic receptor (Homo sapiens, UniProt P08913); experiment: Binding affinity to alpha-2A receptor
T1 sequence (P08913 whole entry): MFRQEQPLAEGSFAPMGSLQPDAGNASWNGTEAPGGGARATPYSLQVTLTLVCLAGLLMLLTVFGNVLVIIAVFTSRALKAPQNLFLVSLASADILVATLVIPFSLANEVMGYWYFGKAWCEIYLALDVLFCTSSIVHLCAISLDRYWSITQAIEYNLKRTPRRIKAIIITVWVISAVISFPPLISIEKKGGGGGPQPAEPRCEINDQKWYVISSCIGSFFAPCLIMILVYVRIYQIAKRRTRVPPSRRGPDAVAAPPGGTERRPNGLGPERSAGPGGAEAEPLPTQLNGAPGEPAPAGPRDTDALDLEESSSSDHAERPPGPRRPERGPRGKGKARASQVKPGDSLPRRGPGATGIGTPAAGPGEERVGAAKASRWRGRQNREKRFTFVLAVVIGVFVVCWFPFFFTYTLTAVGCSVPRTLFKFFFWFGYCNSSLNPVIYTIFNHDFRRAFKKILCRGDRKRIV

[3] = biological target: Sodium-dependent serotonin transporter (Homo sapiens, UniProt P31645); experiment: Binding affinity to 5-HT transporter
Histamine H1 receptor = Histamine H1 receptor (Homo sapiens, UniProt P35367); experiment: Binding affinity to H1 receptor
[4] = biological target: T2, 5-hydroxytryptamine receptor 1A (Homo sapiens, UniProt P08908); experiment: Binding affinity to 5-HT1A receptor
T2 sequence (P08908 whole entry): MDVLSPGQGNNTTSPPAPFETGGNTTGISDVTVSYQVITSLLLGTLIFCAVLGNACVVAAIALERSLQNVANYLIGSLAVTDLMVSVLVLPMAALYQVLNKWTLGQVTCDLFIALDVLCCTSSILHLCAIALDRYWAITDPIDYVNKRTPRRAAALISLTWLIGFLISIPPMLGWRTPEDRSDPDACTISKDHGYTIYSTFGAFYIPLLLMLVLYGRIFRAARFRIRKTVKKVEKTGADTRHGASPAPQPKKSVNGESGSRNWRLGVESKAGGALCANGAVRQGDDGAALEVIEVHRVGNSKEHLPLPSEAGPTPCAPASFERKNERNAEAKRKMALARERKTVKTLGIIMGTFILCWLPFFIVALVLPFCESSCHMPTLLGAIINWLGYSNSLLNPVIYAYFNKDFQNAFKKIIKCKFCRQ

[5] = biological target: Sodium-dependent dopamine transporter (Homo sapiens, UniProt Q01959); experiment: Binding affinity to DAT
D(2) dopamine receptor = D(2) dopamine receptor (Homo sapiens, UniProt P14416); experiment: Binding affinity to D2 receptor
[6] = biological target: 5-hydroxytryptamine receptor 2B (Homo sapiens, UniProt P41595); experiment: Binding affinity to 5-HT2B receptor
[7] = biological target: 5-hydroxytryptamine receptor 6 (Homo sapiens, UniProt P50406); experiment: Binding affinity to 5-HT6 receptor
hERG (KCNH2) = hERG (KCNH2) (Homo sapiens, UniProt Q12809); experiment: Inhibition of human ERG at 10 uM by IonWorks assay
Histamine H3 receptor [8] = biological target: Histamine H3 receptor (Rattus norvegicus, UniProt Q9QYN8); experiment: Displacement of [3H]-(R)-alpha-methylhistamine from rat H3 receptor expressed in HEK293T cells after 120 mins by scintillation counting; type: cell-based, HEK-293T
[9] = biological target: Voltage-gated inwardly rectifying potassium channel KCNH2 (Homo sapiens, UniProt Q12809); experiment: Inhibition of human ERG by IonWorks assay

Chain of Histamine H3 receptor (Rattus norvegicus, UniProt Q9QYN8) (Q9QYN8 whole entry): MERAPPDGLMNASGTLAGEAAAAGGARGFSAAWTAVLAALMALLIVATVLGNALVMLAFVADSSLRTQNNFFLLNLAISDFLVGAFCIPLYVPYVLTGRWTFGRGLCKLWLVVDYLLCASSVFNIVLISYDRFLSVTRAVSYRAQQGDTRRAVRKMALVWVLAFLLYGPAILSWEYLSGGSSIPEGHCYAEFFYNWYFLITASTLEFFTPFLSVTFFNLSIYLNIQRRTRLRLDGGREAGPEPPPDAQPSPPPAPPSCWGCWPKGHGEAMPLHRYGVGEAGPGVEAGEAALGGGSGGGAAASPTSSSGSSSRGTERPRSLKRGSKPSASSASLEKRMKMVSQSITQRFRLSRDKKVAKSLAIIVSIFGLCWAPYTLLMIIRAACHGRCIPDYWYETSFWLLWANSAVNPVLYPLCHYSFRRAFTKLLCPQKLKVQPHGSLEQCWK
Chain of Sodium-dependent serotonin transporter (P31645 whole entry): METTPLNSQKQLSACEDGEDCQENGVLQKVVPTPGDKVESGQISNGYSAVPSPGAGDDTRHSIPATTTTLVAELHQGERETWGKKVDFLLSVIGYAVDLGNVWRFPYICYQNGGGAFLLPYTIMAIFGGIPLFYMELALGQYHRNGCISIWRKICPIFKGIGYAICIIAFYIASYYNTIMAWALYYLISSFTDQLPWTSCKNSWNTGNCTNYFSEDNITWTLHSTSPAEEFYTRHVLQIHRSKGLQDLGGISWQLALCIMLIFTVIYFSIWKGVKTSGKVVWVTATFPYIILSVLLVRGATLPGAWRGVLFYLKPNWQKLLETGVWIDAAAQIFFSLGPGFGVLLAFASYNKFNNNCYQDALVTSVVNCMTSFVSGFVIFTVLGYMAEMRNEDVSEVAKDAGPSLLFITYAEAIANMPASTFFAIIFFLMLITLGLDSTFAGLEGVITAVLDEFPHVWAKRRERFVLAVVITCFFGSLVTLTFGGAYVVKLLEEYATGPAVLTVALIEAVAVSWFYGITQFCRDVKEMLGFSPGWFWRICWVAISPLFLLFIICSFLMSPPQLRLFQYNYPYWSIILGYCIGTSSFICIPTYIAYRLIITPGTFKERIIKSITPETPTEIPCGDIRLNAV
Chain of D(2) dopamine receptor (P14416 whole entry): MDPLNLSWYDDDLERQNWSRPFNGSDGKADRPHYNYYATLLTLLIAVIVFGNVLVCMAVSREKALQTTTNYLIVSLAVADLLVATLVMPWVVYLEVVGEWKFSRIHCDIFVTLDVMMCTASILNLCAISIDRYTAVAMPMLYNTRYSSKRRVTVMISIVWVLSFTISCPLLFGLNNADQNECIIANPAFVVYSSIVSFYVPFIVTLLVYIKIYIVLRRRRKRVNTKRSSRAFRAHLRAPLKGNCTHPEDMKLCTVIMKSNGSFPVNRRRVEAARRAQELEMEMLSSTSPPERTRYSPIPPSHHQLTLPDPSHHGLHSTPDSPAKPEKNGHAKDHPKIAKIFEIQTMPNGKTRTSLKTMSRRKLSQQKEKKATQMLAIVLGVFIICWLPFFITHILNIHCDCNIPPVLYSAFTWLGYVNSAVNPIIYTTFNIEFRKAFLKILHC
Chain of 5-hydroxytryptamine receptor 6 (P50406 whole entry): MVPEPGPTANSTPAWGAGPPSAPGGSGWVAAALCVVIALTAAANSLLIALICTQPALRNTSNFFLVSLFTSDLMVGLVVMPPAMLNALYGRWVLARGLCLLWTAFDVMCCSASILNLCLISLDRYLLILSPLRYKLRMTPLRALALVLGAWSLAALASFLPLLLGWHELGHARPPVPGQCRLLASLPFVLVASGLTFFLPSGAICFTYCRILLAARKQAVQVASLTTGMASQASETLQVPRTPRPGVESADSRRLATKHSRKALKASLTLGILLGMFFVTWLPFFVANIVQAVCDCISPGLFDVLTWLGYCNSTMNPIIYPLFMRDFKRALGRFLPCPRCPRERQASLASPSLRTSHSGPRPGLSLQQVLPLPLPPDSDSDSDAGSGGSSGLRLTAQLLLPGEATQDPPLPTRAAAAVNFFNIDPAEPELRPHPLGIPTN
Chain of Sodium-dependent dopamine transporter (Q01959 whole entry): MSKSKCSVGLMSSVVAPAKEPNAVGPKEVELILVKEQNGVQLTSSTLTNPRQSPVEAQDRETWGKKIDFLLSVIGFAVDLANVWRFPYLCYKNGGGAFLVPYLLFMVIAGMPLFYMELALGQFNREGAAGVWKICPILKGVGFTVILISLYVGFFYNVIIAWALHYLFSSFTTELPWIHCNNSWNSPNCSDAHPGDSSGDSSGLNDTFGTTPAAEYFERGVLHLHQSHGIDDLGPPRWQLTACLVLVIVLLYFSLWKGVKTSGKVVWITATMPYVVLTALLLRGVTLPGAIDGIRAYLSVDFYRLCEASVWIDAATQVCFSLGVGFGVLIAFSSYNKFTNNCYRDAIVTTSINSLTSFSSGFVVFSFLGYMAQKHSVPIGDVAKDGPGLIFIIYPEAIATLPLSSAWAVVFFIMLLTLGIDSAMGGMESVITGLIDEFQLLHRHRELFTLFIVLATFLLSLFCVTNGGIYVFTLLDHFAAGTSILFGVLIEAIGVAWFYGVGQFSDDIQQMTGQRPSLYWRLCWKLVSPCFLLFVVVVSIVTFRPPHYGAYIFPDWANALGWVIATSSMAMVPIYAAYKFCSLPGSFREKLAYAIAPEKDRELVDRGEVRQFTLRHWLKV
Chain of Histamine H3 receptor (Homo sapiens, UniProt Q9Y5N1) (Q9Y5N1 whole entry): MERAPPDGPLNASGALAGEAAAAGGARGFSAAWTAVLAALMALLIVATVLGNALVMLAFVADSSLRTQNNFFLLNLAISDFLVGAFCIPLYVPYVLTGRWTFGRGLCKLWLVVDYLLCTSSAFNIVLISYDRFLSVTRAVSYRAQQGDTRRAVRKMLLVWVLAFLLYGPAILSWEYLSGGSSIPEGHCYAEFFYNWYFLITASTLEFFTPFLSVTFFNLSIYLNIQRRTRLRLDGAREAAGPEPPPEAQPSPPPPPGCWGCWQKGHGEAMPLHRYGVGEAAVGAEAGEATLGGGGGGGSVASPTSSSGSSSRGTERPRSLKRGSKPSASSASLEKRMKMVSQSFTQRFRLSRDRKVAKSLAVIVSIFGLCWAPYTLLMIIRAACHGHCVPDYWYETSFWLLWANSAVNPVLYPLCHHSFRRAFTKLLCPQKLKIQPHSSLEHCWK
Chain of Histamine H1 receptor (P35367 whole entry): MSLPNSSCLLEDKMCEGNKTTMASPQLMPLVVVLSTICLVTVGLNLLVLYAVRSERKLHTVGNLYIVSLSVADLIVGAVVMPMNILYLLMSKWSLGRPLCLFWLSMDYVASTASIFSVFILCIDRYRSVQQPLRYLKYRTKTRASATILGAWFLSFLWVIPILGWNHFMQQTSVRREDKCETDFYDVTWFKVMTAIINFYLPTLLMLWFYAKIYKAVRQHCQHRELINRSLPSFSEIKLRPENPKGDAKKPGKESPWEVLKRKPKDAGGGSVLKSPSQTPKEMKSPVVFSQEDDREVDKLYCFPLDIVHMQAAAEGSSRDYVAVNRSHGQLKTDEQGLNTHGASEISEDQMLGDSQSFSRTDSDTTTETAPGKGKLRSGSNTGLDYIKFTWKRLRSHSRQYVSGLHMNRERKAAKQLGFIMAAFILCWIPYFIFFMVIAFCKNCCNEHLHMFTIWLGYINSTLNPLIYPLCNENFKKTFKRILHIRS
Chain of Histamine H2 receptor (P25021 whole entry): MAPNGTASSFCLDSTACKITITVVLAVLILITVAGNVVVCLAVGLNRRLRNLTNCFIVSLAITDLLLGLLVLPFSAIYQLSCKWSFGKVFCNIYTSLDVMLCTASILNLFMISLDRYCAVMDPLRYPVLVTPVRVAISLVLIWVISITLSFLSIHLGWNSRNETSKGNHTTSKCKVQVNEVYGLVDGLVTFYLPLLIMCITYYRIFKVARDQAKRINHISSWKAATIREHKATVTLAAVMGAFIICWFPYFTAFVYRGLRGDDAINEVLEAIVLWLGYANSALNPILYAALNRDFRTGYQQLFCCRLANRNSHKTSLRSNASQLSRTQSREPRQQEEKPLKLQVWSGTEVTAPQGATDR
Chain of 5-hydroxytryptamine receptor 2B (P41595 whole entry): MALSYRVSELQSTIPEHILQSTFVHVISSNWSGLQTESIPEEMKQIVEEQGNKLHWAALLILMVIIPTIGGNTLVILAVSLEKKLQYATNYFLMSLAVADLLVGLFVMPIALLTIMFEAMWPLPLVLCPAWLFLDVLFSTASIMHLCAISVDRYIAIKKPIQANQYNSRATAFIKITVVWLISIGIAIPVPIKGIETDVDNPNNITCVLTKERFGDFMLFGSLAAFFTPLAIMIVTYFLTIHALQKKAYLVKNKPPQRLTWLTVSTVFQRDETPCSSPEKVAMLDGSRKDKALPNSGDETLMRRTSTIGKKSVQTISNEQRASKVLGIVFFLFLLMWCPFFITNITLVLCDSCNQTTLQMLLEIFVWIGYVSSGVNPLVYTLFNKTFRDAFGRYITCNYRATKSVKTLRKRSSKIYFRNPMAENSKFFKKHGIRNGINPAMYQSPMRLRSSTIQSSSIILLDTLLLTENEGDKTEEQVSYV

Ki (Histamine H3 receptor [1]) [µM] | Ki (Histamine H3 receptor [8]) [µM] | SMILES | inhibition at 10 µM (hERG (KCNH2)) [%] | further results
0.0002 |  | C[C@@H]1CCCN1CCN1CCc2cc(-c3ccc(C(=O)N4CCCC4)cc3)ccc2C1=O |  | Ki (Histamine H2 receptor): > 10 µM; Ki [2]: > 3 µM; Ki [3]: 0.81 µM; Ki (Histamine H1 receptor): 8.75 µM; Ki [4]: 12.2 µM; Ki [5]: > 10 µM; Ki (D(2) dopamine receptor): > 10 µM; Ki [6]: > 10 µM; Ki [7]: > 10 µM
0.0012 |  | C[C@@H]1CCCN1CCN1CCc2cc(Oc3ccc(C#N)cn3)ccc2C1=O | 89 | 
0.009 | 0.146 | O=C1c2ccc(-c3cc(F)cc(F)c3)cc2CCN1CCN1CCCC1 |  | 
0.0034 | 0.073 | N#Cc1cccc(-c2ccc3c(c2)CCN(CCN2CCCC2)C3=O)c1 |  | 
0.0006 |  | C[C@@H]1CCCN1CCN1CCc2cc(Oc3ccc(C#N)cc3)ccc2C1=O | 95 | 
0.006 |  | NC(=O)c1ccc(-c2ccc3c(c2)CCN(CCN2CCCC2)C3=O)cc1 | 14 | 
0.0003 |  | C[C@@H]1CCCN1CCN1CCc2cc(Oc3ccc(C#N)nc3)ccc2C1=O | 99 | 
0.0008 | 0.174 | O=C1c2ccc(-n3cnc4ccccc43)cc2CCN1CCN1CCCC1 |  | 
0.0217 |  | C[C@@H]1CCCN1CCN1CCc2c(cccc2-c2ccc(C#N)cc2)C1=O | 96 | 
0.0149 | 0.178 | O=C1c2ccc(-c3ccc(OC(F)(F)F)cc3)cc2CCN1CCN1CCCC1 |  | 
0.0078 |  | O=C1c2ccc(-c3ccncc3)cc2CCN1CCN1CCCC1 | 93 | 
 | 0.0058 | C[C@@H]1CCCN1CCN1CCc2cc(-c3ccc(C#N)cc3)ccc2C1=O |  | IC50 [9]: 0.14 µM
0.001 |  | CNC(=O)c1ccc(-c2ccc3c(c2)CCN(CCN2CCC[C@H]2C)C3=O)cc1 |  | IC50 [9]: 17 µM
0.0027 |  | O=C(NC1CC1)c1ccc(-c2ccc3c(c2)CCN(CCN2CCCC2)C3=O)cc1 |  | IC50 [9]: 11 µM
0.001 |  | CCNC(=O)c1ccc(-c2ccc3c(c2)CCN(CCN2CCC[C@H]2C)C3=O)cc1 |  | Ki (Histamine H2 receptor): > 10 µM; Ki [2]: > 3 µM; Ki [3]: 0.3 µM; Ki (Histamine H1 receptor): 7.23 µM; Ki [4]: 10.1 µM; Ki [5]: > 10 µM; IC50 [9]: 7.4 µM; Ki (D(2) dopamine receptor): > 10 µM; Ki [6]: > 10 µM; Ki [7]: > 10 µM
0.0081 | 0.153 | O=C1c2ccc(-c3ccc(F)cc3F)cc2CCN1CCN1CCCC1 |  | 
0.0017 |  | C[C@@H]1CCCN1C(=O)c1ccc(-c2ccc3c(c2)CCN(CCN2CCCC2)C3=O)cc1 |  | Ki (Histamine H2 receptor): > 10 µM; Ki [2]: > 3 µM; Ki [3]: 0.32 µM; Ki (Histamine H1 receptor): > 10 µM; Ki [4]: 9.72 µM; Ki [5]: > 10 µM; IC50 [9]: 10.5 µM; Ki (D(2) dopamine receptor): > 10 µM; Ki [6]: > 10 µM; Ki [7]: > 10 µM
0.0017 |  | CNC(=O)c1ccc(-c2ccc3c(c2)CCN(CCN2CCCC2)C3=O)c(F)c1 |  | 
0.0116 | 0.164 | O=C1c2ccc(-c3cccc(F)c3)cc2CCN1CCN1CCCC1 |  | 
0.0019 |  | CC(C)NC(=O)c1ccc(-c2ccc3c(c2)CCN(CCN2CCCC2)C3=O)cc1 |  | 
0.0024 |  | C[C@@H]1CCCN1CCN1CCc2ccc(-c3ccc(C#N)cc3)cc2C1=O | 98 | 
0.0078 |  | O=C1c2ccc(-c3ccc(F)cc3)cc2CCN1CCN1CCCCC1 |  | 
0.018 | 0.153 | N#Cc1ccc(-c2ccc3c(c2)CCN(CCCN2CCCCC2)C3=O)cc1 |  | 
0.006 |  | O=C(c1ccc(-c2ccc3c(c2)CCN(CCN2CCCC2)C3=O)cc1)C1CC1 | 65 | 
